Results reported in article PMC11575505 (Chemical Science, 2024).
Converted amounts (≈) assume the structure as drawn. Like-named read-outs stand apart in the source and are kept apart here. Each block holds one molecule with its values, some of them ahead of it.

Experiments:
[1] = Kinetic solubility; format: physicochemical; conditions: for solubility at 2 h: PBS buffer, 25 °C, pH 7.4, aqueous buffer, kinetic from dmso stock
[2] = system: FOXO1 KTR translocation in T47D cells; assay: FOXO1 KTR translocation; format: cell-based; conditions: for time to import of FOXO1-KTR into the nucleus: 3 μM, live cell imaging
[3] = system: FOXO1 KTR translocation in A2058 cells; assay: FOXO1 KTR translocation; format: cell-based
[4] = system: PKB phosphorylation (Ser473) in T47D, MCF7, PC3 and A2058 cells; assay: Washout, pPKB in-cell western; format: cell-based
[5] = system: PKB/Akt phosphorylation (Ser473) in T47D cells; assay: pPKB/Akt in-cell western; format: cell-based; conditions: 1 h; for prevention of PKB phosphorylation: 3 μM to 0.8 nM
[6] = system: PKB/Akt phosphorylation (Ser473) in MCF7 cells; assay: pPKB/Akt in-cell western; format: cell-based; conditions: MCF7, 1 h; for prevention of PKB phosphorylation: 3 μM to 0.8 nM
[7] = Intrinsic warhead reactivity; format: physicochemical; conditions: 1 mM compound, 600 mM βME, 37 °C
[8] = system: PKB/Akt phosphorylation (Ser473) in SKOV3 cells; assay: pPKB/Akt in-cell western; format: cell-based; conditions: read-out: pPKB/Akt IC50, 1 h of compound exposure
[9] = molecular target: Nanoluc-p110α fusion (Homo sapiens, UniProt P42336); assay: NanoBRET tracer displacement / diffusion assay in HEK293 cells; format: cell-based; conditions: for increase in cellular permeability versus BYL719: diffusion coefficients
Chain of Nanoluc-p110α fusion (P42336 whole entry, the tested form may be a part): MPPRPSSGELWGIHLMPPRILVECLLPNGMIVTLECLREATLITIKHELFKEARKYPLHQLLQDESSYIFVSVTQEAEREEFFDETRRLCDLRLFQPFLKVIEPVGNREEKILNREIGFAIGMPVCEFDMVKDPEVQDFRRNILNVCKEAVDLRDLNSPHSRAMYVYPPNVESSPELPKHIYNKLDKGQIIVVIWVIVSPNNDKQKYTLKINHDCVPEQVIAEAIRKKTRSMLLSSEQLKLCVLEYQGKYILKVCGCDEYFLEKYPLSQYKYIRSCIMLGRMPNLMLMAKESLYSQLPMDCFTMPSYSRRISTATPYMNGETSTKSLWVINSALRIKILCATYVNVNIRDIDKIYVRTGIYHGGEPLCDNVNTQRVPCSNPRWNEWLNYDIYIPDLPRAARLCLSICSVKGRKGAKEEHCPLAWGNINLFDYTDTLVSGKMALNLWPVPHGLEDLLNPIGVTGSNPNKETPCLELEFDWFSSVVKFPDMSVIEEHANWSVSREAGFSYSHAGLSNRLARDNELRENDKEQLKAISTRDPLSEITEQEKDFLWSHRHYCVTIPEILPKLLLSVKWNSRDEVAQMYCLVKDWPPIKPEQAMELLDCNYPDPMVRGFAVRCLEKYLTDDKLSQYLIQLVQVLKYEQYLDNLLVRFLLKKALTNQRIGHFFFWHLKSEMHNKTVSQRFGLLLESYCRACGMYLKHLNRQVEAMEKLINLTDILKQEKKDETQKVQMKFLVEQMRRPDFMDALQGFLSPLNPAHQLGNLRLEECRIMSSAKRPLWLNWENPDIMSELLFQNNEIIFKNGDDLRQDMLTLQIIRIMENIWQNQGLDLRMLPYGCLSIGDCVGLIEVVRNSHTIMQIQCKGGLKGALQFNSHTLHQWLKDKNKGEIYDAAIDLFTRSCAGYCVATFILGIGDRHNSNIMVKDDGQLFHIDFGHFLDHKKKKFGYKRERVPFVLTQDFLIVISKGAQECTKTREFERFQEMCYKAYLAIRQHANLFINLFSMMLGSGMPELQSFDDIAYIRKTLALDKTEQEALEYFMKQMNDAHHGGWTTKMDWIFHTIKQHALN
Chain of Nanoluc-p110α fusion (P27986 whole entry partner, the tested form may be a part): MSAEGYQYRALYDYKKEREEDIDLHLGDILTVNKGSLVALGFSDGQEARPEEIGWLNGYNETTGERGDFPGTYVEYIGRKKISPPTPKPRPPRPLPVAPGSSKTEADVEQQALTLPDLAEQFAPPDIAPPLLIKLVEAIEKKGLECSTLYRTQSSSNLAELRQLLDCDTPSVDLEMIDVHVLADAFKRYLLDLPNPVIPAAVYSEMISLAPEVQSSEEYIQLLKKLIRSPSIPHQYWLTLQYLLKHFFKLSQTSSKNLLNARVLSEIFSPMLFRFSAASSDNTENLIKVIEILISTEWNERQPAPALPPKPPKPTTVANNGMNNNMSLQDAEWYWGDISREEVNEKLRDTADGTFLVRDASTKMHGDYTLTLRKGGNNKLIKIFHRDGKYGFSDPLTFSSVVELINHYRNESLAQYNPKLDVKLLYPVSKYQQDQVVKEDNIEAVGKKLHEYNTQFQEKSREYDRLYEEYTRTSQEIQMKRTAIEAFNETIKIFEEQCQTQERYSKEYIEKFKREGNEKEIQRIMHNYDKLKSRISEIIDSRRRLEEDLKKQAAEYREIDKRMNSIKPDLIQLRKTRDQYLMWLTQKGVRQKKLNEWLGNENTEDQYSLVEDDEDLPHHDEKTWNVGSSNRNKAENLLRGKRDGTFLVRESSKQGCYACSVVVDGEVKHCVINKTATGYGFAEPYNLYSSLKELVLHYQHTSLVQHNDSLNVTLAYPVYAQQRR

[10] = system: p110α; assay: p110α protein levels by western blot; format: cell-based; conditions: 1 μM for 48 h
[11] = system: PI3K signaling (pPKB Ser473) in serum-starved MCF7 cells; assay: Receptor ligand stimulated pPKB after washout, western blot; format: cell-based; conditions: for inhibition at 1 µM: Homo sapiens, MCF7, 2 h
[12] = system: PKB phosphorylation (Ser473) in MDA-MB-453, T47D and MCF7 cells; assay: Washout, pPKB in-cell western; format: cell-based; conditions: 1 μM for 2 h then washout
[13] = system: PI3Kα mutant cell lines; assay: Growth rate on intermittent exposure; format: cell-based; conditions: 1 μM for 4 h daily over 4 days
[14] = system: PI3Kα-mutant cell lines; assay: Growth rate inhibition, panel comparison; format: cell-based; conditions: 72 h incubation, GR50

solubility at 2 h [1]: 49 µM (≈ 21.6 µg/mL)
FOXO1-KTR nuclear translocation IC90 ([3]; A2058, 1 h incubation): completely ineffective
Compound: Cc1nc(NC(=O)N2CCC[C@H]2C(N)=O)sc1-c1ccnc(C(C)(C)C(F)(F)F)c1 [BYL719, reference compound]
time to import of FOXO1-KTR into the nucleus [2]: < 20 min
FOXO1-KTR nuclear import IC90 ([2]; 1 h incubation): not able to induce full nuclear translocation
reactivation of PI3K/PKB signaling after removal of inhibitor ([4]; all cell lines, 2 h incubation then washout): reactivated PI3K/PBK signaling within the first hour

Compound: CC[C@H](Nc1ncnc2[nH]cnc12)c1nc2cccc(F)c2c(=O)n1-c1ccccc1 [CAL101]
prevention of PKB phosphorylation [5]: did not prevent PKB phosphorylation
prevention of PKB phosphorylation [6]: did not prevent PKB phosphorylation

Solubility ([1]; kinetic solubility at pH 7.4 in PBS): 10 µM (≈ 5.74 µg/mL)
IC50 [8]: 172 nM
Compound: CC(C)=CC(=O)CCC(=O)N1CCN(Cc2cc3nc(-c4cccc5[nH]ncc45)nc(N4CCOCC4)c3s2)CC1 [CNX1351, reference compound]
k chem × 10^4 [7]: 2.2 M^−1 s^−1

solubility at 2 h [1]: 333 µM (≈ 205 µg/mL)
IC50 [8]: 86 nM
Compound: C=CC(=O)N1CCC(C(=O)NCC(=O)N2CCN(c3nc(-c4cnc(N)nc4C(F)F)nc(N4CCOCC4)n3)CC2)CC1 [Compound 1]

solubility at 2 h [1]: 383 µM (≈ 241 µg/mL)
IC50 [8]: 82 nM
Compound: C=CC(=O)N1CCC(C(=O)N(C)CC(=O)N2CCN(c3nc(-c4cnc(N)nc4C(F)F)nc(N4CCOCC4)n3)CC2)CC1 [Compound 2]

solubility at 2 h [1]: 363 µM (≈ 223 µg/mL)
IC50 [8]: 38 nM
Compound: C=CC(=O)N1CCC(CN(C)CC(=O)N2CCN(c3nc(-c4cnc(N)nc4C(F)F)nc(N4CCOCC4)n3)CC2)CC1 [Compound 3]

IC50 [8]: 69 nM
Compound: C=CC(=O)N1CCC(C(=O)NCCN2CCN(c3nc(-c4cnc(N)nc4C(F)F)nc(N4CCOCC4)n3)CC2)CC1 [Compound 4]
k chem × 10^4 [7]: ~5.2 ^e M^−1 s^−1

IC50 [8]: 22 nM
better cellular potency (lower pPKB IC50) as compared to BYL719 [5]: 5 fold
better cellular potency (lower pPKB IC50) as compared to BYL719 [6]: 8 fold
IC90 ([2]; Homo sapiens, 1 h, read-out: FOXO1-KTR nuclear import IC90): 50 nM
IC90 ([3]; Homo sapiens, A2058, 1 h, read-out: FOXO1-KTR nuclear translocation IC90): 1660 nM
Compound: C=CC(=O)N1CCC(CCCC(=O)N2CCN(c3nc(-c4cnc(N)nc4C(F)F)nc(N4CCOCC4)n3)CC2)CC1 [Compound 7]
persistence of nuclear FOXO1-KTR localization after washout ([2]; 3 μM then washout): > 10 h
time to import of FOXO1-KTR into the nucleus [2]: < 20 min
time to nuclear FOXO1 KTR localization ([3]; A2058, 3 μM, live cell imaging): > 40 min
PI3K/PKB signaling after washout ([4]; PTEN-deficient cell lines): ~50%
duration of pathway inhibition after washout ([4]; T47D and MCF7 cells, 3 μM for 2 h then washout): > 18 h

IC50 [8]: 19 nM
increase in cellular permeability versus BYL719 [9]: 2- to 3 fold
Compound: C=CC(=O)N1CCC(COCC(=O)N2CCN(c3nc(-c4cnc(N)nc4C(F)F)nc(N4CCOCC4)n3)CC2)CC1 [Compound 8]

solubility at 2 h [1]: 357 µM (≈ 220 µg/mL)
IC50 [8]: 19 nM
increase in cellular permeability versus BYL719 [9]: 2- to 3 fold
faster permeation into cells as compared to 7 ([9]; human, 4 h): ca. 2.8 ×
Compound: C=CC(=O)N1CCC(COCC(=O)N2CCN(c3nc(-c4cnc(N)nc4C(F)F)nc(N4CCOC[C@@H]4C)n3)CC2)CC1 [Compound 9]
depletion of p110α ([10]; HCC1954 and MDA-MB-453 cells): prominent, indistinguishable depletion of p110α
depletion of p110α ([10]; MCF7 and T47D cells): insignificant
inhibition at 1 µM ([11]; read-out: inhibition of PI3K signaling in response to CXCL12): 91%
inhibition at 1 µM ([11]; read-out: inhibition of PI3K signaling in response to EGF): 98%
duration of loss of detectable pPKB after washout [12]: up to 72 h
growth rate [13]: ≤ 0.5
more potent growth inhibition than reference compounds BYL719 and GDC-0077 [14]: 2- to 273 fold
more potent than the reversible analogue 9r [14]: 6- to 70 fold

time to equilibrium of BRET signal decay ([9]; HEK293, 200 nM Tracer K-3): ca. 20 min
increase in cellular permeability versus BYL719 [9]: 2- to 3 fold
Compound: CCC(=O)N1CCC(COCC(=O)N2CCN(c3nc(-c4cnc(N)nc4C(F)F)nc(N4CCOC[C@@H]4C)n3)CC2)CC1 [Compound 9r]

solubility at 2 h [1]: 357 µM (≈ 145 µg/mL)
Compound: C[C@H](Nc1ccc2c(c1)OCCn1cc(N3C(=O)OC[C@H]3C(F)F)nc1-2)C(N)=O [GDC-0077, reference compound]
depletion of p110α ([10]; HCC1954 and MDA-MB-453 cells): prominent, indistinguishable depletion of p110α
depletion of p110α ([10]; MCF7 and T47D cells): insignificant

solubility at 2 h [1]: 10 µM (≈ 4.41 µg/mL)
Compound: C=CC(=O)N1CCC[C@@H](n2nc(-c3ccc(Oc4ccccc4)cc3)c3c(N)ncnc32)C1 [Ibrutinib, reference compound]

Compound: Cc1cc(C(C)Nc2ccccc2)c2nc(N3CCOCC3)cc(=O)n2c1 (centres unmarked) [TGX221]
prevention of PKB phosphorylation [5]: did not prevent PKB phosphorylation
prevention of PKB phosphorylation [6]: did not prevent PKB phosphorylation
suppression of the remaining PI3K signaling, CXCL12 ([11]; MCF7, TGX221 1 μM after 9-wo): 6%
suppression of the remaining PI3K signaling, EGF ([11]; MCF7, TGX221 1 μM after 9-wo): 2%
suppression of the remaining PI3K signaling, insulin ([11]; MCF7, TGX221 1 μM after 9-wo): 12%
